The text below walks through data of patent publication US5683713A, “Pharmaceutical compositions for topical application” (priority 1993, dated 1997).

Like-named read-outs stand apart in the source and are kept apart here. Some results are limits rather than exact numbers.

For data set [1] the following is noted: prior art; cited from earlier work.
The conditions of data set [2]: not told; cited from earlier work.
For data set [3] the following is noted: 6-carboxylfluorescein, rats; pretreatment of the skin with 4% calcium thioglycolate; cited from earlier work.
The conditions of data set [4]: across human skin; cited from earlier work.
The nature of data set [5]: Skin irritation / tolerability. The following applies: thioglycolate esters and amides.
Data set [6] is described as follows: In-vitro demonstration of the reaction: conversion of cystine into cysteine, followed by TLC. As to conditions: after 6 hours; room temperature, water pH 7.2, under nitrogen. On the procedure: A test was made to check whether the presence of a thioglycolate ester will cause conversion of Cystine into Cysteine: [drawing 1]
In a three necked flask (100 ml), under nitrogen were added 10 ml of water (pH 7.2), 200 mg cystine and 200 mg, of iso-octyl thioglycolate and stirred at room temperature for 24 hours. The reaction was followed by TLC using Silica-Gel precoated plates. As an eluant a mixture of BuOH:H2 O:AcOH in a 10:1:5 ratio respectively was used. The plates were developed by spraying a solution of 5% Ninhydrine in ethanol and heating. […] A control experiment was made under the same conditions but without the Thioglycolate ester. After 20 hours at room temperature no cysteine could be detected.

As to `OCCS` [2-Mercaptoethanol], in data set [1], the irritation entry was “very strong irritants”. For `C[S+](C)[O-]` [Dimethyl sulfoxide], the “concentration needed for significant permeation enhancement” value in data set [2] is greater than 70%.

For the compound `CC(C)=O` [acetone], in data set [1], the irritation result was “cause irritation and edema”. Turning to `O=C(O)CS` [calcium thioglycolate], the “increase of penetration as compared to the control” value in data set [3] is 9 times.

Take `CCCCCCCCCC[S+](C)[O-]` (stereo not shown) [decyl methyl, sulfoxide]: in data set [4], the “penetration of sodium methotrexate” value is on record as “enhances the penetration of sodium methotrexate across human skin”. Also, the toxicological problems result in data set [1] was “creates toxicological problems”. Regarding `CCOC(=O)CS` [ethyl thioglycolate], the irritation result in data set [5] is “irritants”. With `CC(C)CCCCCOC(=O)CS` [iso-octyl thioglycolate, Iso-octyl thioglycolate], the “conversion of cystine to cysteine (TLC spot)” value in data set [6] is “a spot corresponding to cysteine was formed and this spot grew as a function of time”.

On to `COC(=O)CS` [methyl thioglycolate], for which, in data set [5], the irritation result was “irritants”. Consider tetralinhydrofurfuryl alcohol, for which the irritation entry in data set [1] is “cause irritation and edema”.
